Among the data in PubChem BioAssay (NCI) are GI50 and TGI values, retold here.

Among the test systems are HS 578T breast; NCI-H23 lung; NCI-H226 lung; SF-295 CNS; BT-549 breast; MCF7 breast; ACHN renal; KM12 colon; SNB-75 CNS; COLO 205 colon.
What all share (experiment): NCI tumour cell line growth inhibition, 48 h

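Compound exposure: 48 hours, 5 concentrations, 96-well plates. The concentration for 50% growth inhibition is given as GI50. Definition used: TGI = concentration required for complete inhibition of growth.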 Bounds are passed on as bounds.

With `Cc1ccc(S(=O)(=O)n2cc([C@@]3(O)C[C@H](CSC#N)OC3=O)c3ccccc32)cc1`, the GI50 was 8.7 µM with HS 578T breast; 26500 nM with NCI-H23 lung; 16800 nM in the test on NCI-H226 lung; 16100 nM in the test on SF-295 CNS; 16900 nM in the test with BT-549 breast; 2800 nM in the test with MCF7 breast. Also, the GI50 in the test on ACHN renal is 11200 nM; in the test on KM12 colon, 4650 nM; in the test with SNB-75 CNS it was 15500 nM; in the test on COLO 205 colon it was 6420 nM. Further, the TGI in the test with HS 578T breast was 32.6 µM; in the test with NCI-H23 lung it was over 100 µM; in the test with NCI-H226 lung it was 32.6 µM; in the test on SF-295 CNS, 69.2 µM; with BT-549 breast, 33.1 µM; with MCF7 breast, 18.1 µM. Further, the TGI in the test on ACHN renal turned out to be 27.1 µM; in the test with KM12 colon, 23 µM; in the test on SNB-75 CNS, 71 µM; in the test on COLO 205 colon it was 33.6 µM.
As to `CN1CCN(Cc2ccc(NC(=O)c3[nH]ncc3Nc3ncnc4[nH]ccc34)cc2)CC1`, the GI50 is 0.197 µM in the test on HS 578T breast; 295 nM with NCI-H23 lung; 205 nM in the test with NCI-H226 lung; 211 nM in the test with SF-295 CNS; 297 nM in the test on BT-549 breast; 118 nM in the test with MCF7 breast. Besides, the GI50 was 322 nM in the test with ACHN renal, 347 nM with KM12 colon, 39.3 nM with SNB-75 CNS and 193 nM with COLO 205 colon. The TGI in the test on HS 578T breast amounted to 0.98 µM; in the test with NCI-H23 lung, 1.08 µM; in the test with NCI-H226 lung, 1.87 µM; in the test on SF-295 CNS, 5.01 µM; with BT-549 breast it was 1.07 µM; in the test with MCF7 breast, 29.1 µM. Moreover, the TGI in the test with ACHN renal is 10 µM; in the test with KM12 colon, 10.9 µM; in the test with SNB-75 CNS, 0.371 µM; in the test on COLO 205 colon, 0.427 µM.
With `COc1cc(C)cc(C(=O)/C=C/c2ccccc2)c1O`, the TGI in the test with HS 578T breast was over 100 µM; in the test with NCI-H23 lung it was 32.4 µM; with NCI-H226 lung, 73.9 µM; in the test on SF-295 CNS it was 39.4 µM; in the test on BT-549 breast, 37.8 µM; in the test with MCF7 breast, 49 µM. In addition, the TGI with ACHN renal was found to be 33.1 µM; in the test with KM12 colon, 41.2 µM; with SNB-75 CNS it was 72.1 µM; in the test with COLO 205 colon, 38.1 µM.
For the compound `CC1CCCC(C#N)(NOC2=NCCN2)C1` (stereo not given), the GI50 in the test with HS 578T breast was 52.3 µM; in the test on NCI-H23 lung it was 35300 nM; in the test on NCI-H226 lung it was 17200 nM; with SF-295 CNS it was 31000 nM; with BT-549 breast, 19000 nM; in the test with MCF7 breast, 42200 nM. Also, the GI50 in the test on ACHN renal is 18900 nM; with KM12 colon, 48400 nM; in the test on SNB-75 CNS it was 40300 nM; in the test with COLO 205 colon it was 61300 nM. The TGI was over 100 µM with HS 578T breast; over 100 µM in the test on NCI-H23 lung; 37 µM in the test with NCI-H226 lung; over 100 µM with SF-295 CNS; 42.3 µM with BT-549 breast; over 100 µM in the test on MCF7 breast. Besides, the TGI in the test with ACHN renal is 46 µM; in the test with KM12 colon, over 100 µM; in the test on SNB-75 CNS it was over 100 µM; in the test on COLO 205 colon, over 100 µM.
With `COc1c(OC)c(OC)c2c(=O)cc(-c3ccc(OC(C)C)cc3)oc2c1OC`, the TGI is 52.5 µM in the test on HS 578T breast; over 56.5 µM in the test with NCI-H23 lung; 32.3 µM in the test with NCI-H226 lung; over 53.6 µM in the test on SF-295 CNS; over 49.9 µM in the test on BT-549 breast; 35.8 µM in the test on MCF7 breast. Moreover, the TGI in the test on ACHN renal was over 55.8 µM; with KM12 colon, over 100 µM; in the test with SNB-75 CNS it was over 49.9 µM; with COLO 205 colon it was over 50.2 µM.
Regarding `FC(F)c1ncc(-c2ccc(C(F)(F)F)cc2)c(NC2CCCCCC2)n1`, the GI50 in the test with HS 578T breast was over 10 µM; in the test on NCI-H23 lung it was over 10000 nM; with NCI-H226 lung, over 10000 nM; in the test on SF-295 CNS, over 10000 nM; in the test with BT-549 breast it was over 10000 nM; in the test on MCF7 breast, over 10000 nM. Moreover, the GI50 with ACHN renal, in the test on KM12 colon, with SNB-75 CNS and in the test with COLO 205 colon was over 10000 nM each time. Also, the TGI in the test on HS 578T breast, in the test on NCI-H23 lung, with NCI-H226 lung, in the test on SF-295 CNS, in the test on BT-549 breast and with MCF7 breast was over 10 µM in each case. The TGI in the test on ACHN renal, with KM12 colon, with SNB-75 CNS and with COLO 205 colon was over 10 µM in each case.
Turning to `NC1=NC(SCc2ccccc2CCl)c2ncn(Cc3ccccc3CCl)c2N1` (stereo not given), the GI50 in the test on HS 578T breast is 3.51 µM; in the test on NCI-H23 lung, 1610 nM; with NCI-H226 lung, 1900 nM; with SF-295 CNS it was 1980 nM; in the test on BT-549 breast it was 1700 nM; with MCF7 breast, 2170 nM. The GI50 in the test with ACHN renal is 2070 nM; with KM12 colon, 1740 nM; in the test with SNB-75 CNS, 2060 nM; with COLO 205 colon, 1640 nM. Further, the TGI in the test with HS 578T breast was over 100 µM; with NCI-H23 lung it was 3.45 µM; in the test with NCI-H226 lung, 4.7 µM; in the test on SF-295 CNS, 5 µM; with BT-549 breast it was 3.35 µM; in the test with MCF7 breast, 19.9 µM. In addition, the TGI in the test on ACHN renal came out at 5.45 µM; with KM12 colon it was 3.6 µM; in the test on SNB-75 CNS it was 5.47 µM; in the test on COLO 205 colon, 3.49 µM.
Regarding `CN1CCN(C(=O)c2ccc(NC(=O)Nc3ccc(-c4nc(N5CCOCC5)c5cccn5n4)cc3)cc2)CC1`, the GI50 in the test with HS 578T breast was 0.0177 µM; in the test on NCI-H23 lung, 71.1 nM; in the test on NCI-H226 lung, 30.6 nM; in the test with SF-295 CNS, 32.2 nM; in the test on BT-549 breast, 104 nM; in the test with MCF7 breast, under 12 nM. The GI50 is 279 nM with ACHN renal, 78.7 nM in the test on KM12 colon, 13.4 nM in the test with SNB-75 CNS and 41.4 nM in the test on COLO 205 colon. Also, the TGI with HS 578T breast is 0.082 µM; with NCI-H23 lung, 19 µM; in the test with NCI-H226 lung, 0.345 µM; in the test on SF-295 CNS, 0.239 µM; with BT-549 breast, 0.789 µM; with MCF7 breast it was 2.73 µM. The TGI in the test on ACHN renal was 12.8 µM; in the test with KM12 colon, 13.7 µM; in the test on SNB-75 CNS, 0.0684 µM; in the test on COLO 205 colon, 1.38 µM.
